Tests used:
[1] = system: osteoclast precursors; assay: Differentiation test of osteoclasts (RANKL/M-CSF induced, TRAP staining); assay type: cell-based, Wistar rats; conditions: for effect of ICI 182,780 on the inhibition of osteoclast formation: 1 nM ICI 182,780 (antagonist of estrogen receptors), result in words
Protocol: Bone marrow was taken out from the femurs and tibiae of Wistar rats, and bone marrow cavities were washed with a α-minimum essential medium (Hyclone, Logan, Utah, USA) comprising a 20 mmol HEPES buffer solution, 10 vol % heat-inactivated fetal bovine serum, 2 mmol glutamine, 100 U/ml penicillin, and 100 µg/ml streptomycin. After 24 hours, inadhesive hematopoietic cells that were washed were collected, and were used as osteoclast precursors.
The aforesaid precursor cells were incubated in 24-wells culture plates with a density of 1×10^6 cells/well, and the culture plates comprised soluble human recombinant RANKL (50 ng/ml, PeproTech EC, London, UK) and M-CSF (20 ng/ml, PeproTech EC). Under the induction of M-CSF and RANKL, the precursor cells may differentiate into osteoclasts.
Then, various concentrations of the Flemingia macrophylla extract or Lespedeza flavanone A were added into the culture plates, and culture medium was replaced once every 3 days. On the ninth day, osteoclasts were stained with a TRAP staining kit, and the formation of osteoclasts was observed. The cells were then fixed with 10 vol % formaldehyde (in a phosphate buffer solution) for three minutes, and were stained with Naphthol AS-Mx phosphate and a tartaric acid solution at 37° C. for 1 hour. TRAP-positive multinucleated osteoclasts with more than three nuclei were regarded as osteoclasts (see Asagiri et al., The molecular understanding of osteoclast differentiation, Bone, 2007, 40: 251-64, which is entirely incorporated hereinto by reference).
To clarify the mechanism of Lespedeza flavanone A, an experiment was carried out with 1 nM ICI 182,780 (an antagonist of estrogen receptors) (see Howell et al., ICI 182,780 (Faslodex): development of a novel, “pure” antiestrogen, Cancer, 2000, 89: 817-825, which is entirely incorporated hereinto by reference), and influence of ICI 182,780 on the formation of osteoclasts was observed, and 10 nM 17β-estradiol was used for comparison.

[2] = system: OVX rats; assay: Body weight and vagina weight of ovariectomized rats after 13 weeks of oral administration; assay type: in vivo, Wistar rats; conditions: alendronate 2.5 mg/kg-body weight per day
Protocol: (§1) Female Wistar rats (BioLASCO, Taipei, Taiwan) were used in the following experiments. In an experiment group, the rats were anesthetized with 40 mg/kg-body weight of pentobarbital sodium, and ovaries in both sides of the dorsum of the rats were removed to induce osteoporosis, and a decrease in estrogen of the postmenopausal female rats was observed. The rats of which ovaries were removed (i.e., ovariectomized rat) are represented as “OVX rats” hereinafter. In the control group (i.e., a sham group), the skin and muscle on the ovary positions at both sides of the dorsum of the rats were incised and then sutured, while the ovaries were not removed.
(§2) After one week from the surgery, the control group was administrated water orally every day. […] During the administration, the body weight of each rat was measured once a week until the last day of the administration. Distilled water was added into the extract to form a suspension, and the rats were administrated orally with 1 ml/100 g-body weight of the suspension.
After the end of the administration in Example 2, the rats were anesthetized with a high dosage of pentobarbital sodium (65 mg/kg-body weight) and were sacrificed. Blood samples of the rats were then collected, and tibiae and vertebrae of the rats were dissected, and vaginas were taken out from the rats and the weight of the vaginas was measured.

[3] = system: OVX rats; assay: Density and content of minerals in tibiae (dual-energy X-ray absorptiometer); assay type: in vivo, Wistar rats; conditions: oral, alendronate 2.5 mg/kg-body weight per day, 13 weeks
Source text: Female Wistar rats (BioLASCO, Taipei, Taiwan) were used in the following experiments. […] The rats of which ovaries were removed (i.e., ovariectomized rat) are represented as “OVX rats” hereinafter. In the control group (i.e., a sham group), the skin and muscle on the ovary positions at both sides of the dorsum of the rats were incised and then sutured, while the ovaries were not removed.

[4] = system: OVX rats; assay: Weight ratio of bone ash and calcium content of fifth vertebra; assay type: in vivo, Wistar rats; conditions: bone ash, per bone volume, oral, alendronate 2.5 mg/kg-body weight per day, 13 weeks
Protocol: as §1, §2
The fifth sections of the vertebrae of the rats in Example 3 were dissected in an ethanol bath and dried at 100° C. overnight, and the dry weight of the vertebrae was measured. […] After the cremation, bone ash was collected, and the weight ratio of the bone ash (represented as the percentage of the dry weight of the vertebrae) was measured. […]

[5] = system: OVX rats; assay: Tissue analysis of tibiae (H&E, TRAP staining); assay type: in vivo, Wistar rats; conditions: oral, alendronate 2.5 mg/kg-body weight per day, 13 weeks
Protocol: as §1, §2
The left tibiae of the rats in Example 3 were taken and fixed with 4 vol % metaformaldehyde (in a phosphate buffer solution, PBS, pH 7.4) for 48 hours, and calcium was removed in a solution (pH 7.4) of 10 wt % EDTA (ethylenediamine tetraacetic acid) at 4° C. for 4 weeks. After calcium was removed, the bones were cut to generate a cross-section, and tissue staining was carried out with hematoxylin and eosin. […] The microscope images were analyzed with a color image analysis system (Image-Pro Plus version 5.1, Media Cybernetics, Maryland, USA), and the volume of trabecular bones and the thickness of […] of metaphysis of the rats were measured. […]
In another aspect, the above cross-section was stained with a TRAP (tartrate-resistant acid phosphatase) kit (Sigma-Aldrich, St. Louis, Mo., USA), and the number of osteoclasts was measured (see Cole et al., Tartrate-resistant acid phosphatase in bone and cartilage following decalcification and cold-embedding in plastic. J Histochem Cyrochem, 1987: 35, 203-6, which is entirely incorporated hereinto by reference).

[6] = system: OVX rats; assay: Biochemical values of blood and urine (ALP, calcium, DPD); assay type: in vivo, Wistar rats; conditions: oral, alendronate 2.5 mg/kg-body weight per day, 13 weeks
Protocol: as §1, §2
The activity of ALP (alkaline phosphatase) and the content of calcium and creatinine in the blood and urine of the rats were measured with a clinical trial kit (Roche Diagnostics, Mannheim, Germany) and a spectrophotometric analyzer (Cobas Mira Plus, Roche, Rotkreuz, Switzerland), and the calcium content in the urine and blood of the rats was also measured with a method using o-cresolphthalein complexone (Randox, UK). ALP is a bio-indicator or molecular marker of an early activation stage of preosteoblasts, and based on ALP activity, the activation situation of preosteoblasts can be observed. The calcium content in the urine is represented as “mg/mmol creatinine in the urine.”
Moreover, the content of deoxypyridinoline (DPD) in the urine was measured with ELISA (enzyme linked immunosorbent assay) (an ELISA kit is purchased from Metra, San Diego, Calif., USA), and is represented as “[…] creatinine in the urine.” The results are shown in Table 5. […]

Compound | effect of ICI 182,780 on the inhibition of osteoclast formation [1] | the percentage of osteoclast formation ([1]; 0.1 μM with ICI 182,780 (1 nM), day 9) [%] | the percentage of osteoclast formation ([1]; 0.1 μM, day 9, control = 100) [%] | the percentage of osteoclast formation ([1]; 1.0 μM with ICI 182,780 (1 nM), day 9) [%] | the percentage of osteoclast formation ([1]; 1.0 μM, day 9, control = 100) [%] | the percentage of osteoclast formation ([1]; 10.0 μM with ICI 182,780 (1 nM), day 9) [%] | the percentage of osteoclast formation ([1]; 10.0 μM, day 9, control = 100) [%] | the percentage of osteoclast formation ([1]; 10.0 nM with ICI 182,780 (1 nM), day 9) [%] | the percentage of osteoclast formation ([1]; 10.0 nM, day 9, control = 100) [%] | average body weight after 13 weeks from the surgery [2] [g] | average vagina weight [2] [g] | mineral content [3] [g] | calcium content [4] [mg/mL] | osteoclast number/bone surface ([5]; TRAP staining, tibia) [mm] | thickness of dermal bones ([5]; tibia metaphysis) [μm] | trabecular bone volume/tissue volume ([5]; tibia metaphysis) [%] | DPD content in urine ([6]; ELISA) [mg/mmol creatinine] | ALP ([6]; blood serum) [U/L] | calcium content in urine [6] [mg/mmol creatinine]
COc1ccc([C@@H]2CC(=O)c3c(O)c(CC=C(C)C)c(O)c(CC=C(C)C)c3O2)c(O)c1 [LDF-A, 5,7,2-trihydroxy-6,8-di-r,r-dimethylallyl-4-methoxyflavanone] | did not inhibit the inhibition effect | 65.0 ± 11.5 | 70.7 ± 9.5 | 49.0 ± 6.2 | 60.0 ± 5.2 | 26.0 ± 8.9 | 27.0 ± 2.6 |  |  |  |  |  |  |  |  |  |  |  | 
C[C@]12CC[C@@H]3c4ccc(O)cc4CC[C@H]3[C@@H]1CC[C@@H]2O [17β-estradiol] | clearly inhibited the inhibition effect |  |  |  |  |  |  | 83.0 ± 13.2 | 57.7 ± 8.1 |  |  |  |  |  |  |  |  |  | 
NCCCC(O)(P(=O)(O)O)P(=O)(O)O [alendronate] |  |  |  |  |  |  |  |  |  | 377.8 ± 36.5 | 0.18 ± 0.01 | 0.38 ± 0.01 | 206.1 ± 24.2 | 2.7 ± 0.4 | 215.0 ± 10.2 | 36.1 ± 1.1 | 281.2 ± 52.3 | 163.5 ± 24.0 | 45.2 ± 14.8
